The values that follow come from US20260374754A1, “N-((ISOQUINOLIN-6-YL)METHYL)-1H-PYRAZOLE-4-CARBOXAMIDE DERIVATIVES AS PLASMA KALLIKREIN INHIBITORS FOR THE TREATMENT OF HEREDITARY ANGIODEMA” (Takeda Pharmaceutical Company Limited, priority 2022, published 2026).

SMILES strings stand for the structures. pEC50: −log10 of the molar value. Counter-ions that a name gives are not always drawn. Where only a bound is given, the exact number is not on record here.

Chain of human activated kallikrein enzyme (P03952 391-638 limits assumed): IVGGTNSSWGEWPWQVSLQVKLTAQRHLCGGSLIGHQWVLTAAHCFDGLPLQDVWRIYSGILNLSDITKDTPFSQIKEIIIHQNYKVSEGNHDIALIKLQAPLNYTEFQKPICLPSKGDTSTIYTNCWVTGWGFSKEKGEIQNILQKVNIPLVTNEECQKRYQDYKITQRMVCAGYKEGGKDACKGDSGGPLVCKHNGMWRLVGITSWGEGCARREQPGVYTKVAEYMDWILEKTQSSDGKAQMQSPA
Chain of human activated kallikrein enzyme (P03952 20-390 partner limits assumed): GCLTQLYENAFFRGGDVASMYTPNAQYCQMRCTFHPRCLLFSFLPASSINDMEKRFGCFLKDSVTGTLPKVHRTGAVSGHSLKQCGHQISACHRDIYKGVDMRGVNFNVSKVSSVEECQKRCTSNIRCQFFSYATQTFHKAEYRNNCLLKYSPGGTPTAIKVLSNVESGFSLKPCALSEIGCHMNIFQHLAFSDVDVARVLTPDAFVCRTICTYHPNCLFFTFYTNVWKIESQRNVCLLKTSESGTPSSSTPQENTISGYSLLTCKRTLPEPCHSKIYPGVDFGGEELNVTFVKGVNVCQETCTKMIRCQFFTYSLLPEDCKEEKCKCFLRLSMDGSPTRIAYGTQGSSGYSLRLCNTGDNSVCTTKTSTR

The first assay has as its target human activated kallikrein enzyme (Homo sapiens, UniProt P03952). In words: Inhibition of human activated plasma kallikrein, fluorogenic PFR-AMC substrate, 500 pM enzyme format. It is filed as biochemical. Particulars: 500 pM activated kallikrein; 300 μM PFR-AMC; 30 min preincubation; 10 min room temperature; pH 7.5; read-out: Primary Dose Response Assay: Average EC50. The essentials:
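Using fluorogenic PFR-AMC at 300 μM, cleavage by 500 pM human activated kallikrein ran 10 min at room temperature, read at 460 nm emission (380 nm excitation). Enzyme and compounds were first preincubated 30 min in 20 mM Tris pH 7.5, 150 mM NaCl, 1 mM EDTA, 0.1% PEG-400, 0.1% Triton X-100.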
As usually defined, the pEC50 is the negative decadic logarithm of the EC50, by convention in mol/L. Turning to `Cc1cc2c(N)nccc2c(C)c1CNC(c1cnn(Cc2ccc(Cn3ccccc3=O)cc2)c1)C(F)(F)F` (stereo not drawn) [Example I-471, 1-(4-((4-(1-(((1-amino-5,7-dimethylisoquinolin-6-yl)methyl)amino)-2,2,2-trifluoroethyl)-1H-pyrazol-1-yl)methyl)benzyl)pyridin-2(1H)-one], the negative-log EC50 (pEC50) is 7.00 to 8.00.
Still for that read-out and setting: in the case of `Cc1cc2c(N)nccc2c(C)c1CNc1cc(NCc2cc(C)c(OCc3nccs3)c(C)c2)ncn1` [Example 355, N^4-((1-amino-5,7-dimethylisoquinolin-6-yl)methyl)-N^6-(3,5-dimethyl-4-(thiazol-2-ylmethoxy)benzyl)pyrimidine-4,6-diamine, formic acid salt] it was 8.00 to 9.00; in that of `Cc1cc2c(N)nccc2c(C)c1CNc1cc2c(ccn2Cc2ccc3ncc(Cl)cc3c2)cn1` [Example 531, 6-(((1-((3-chloroquinolin-6-yl)methyl)-1H-pyrrolo[3,2-c]pyridin-6-yl)amino)methyl)-5,7-dimethylisoquinolin-1-amine], 7.00 to 8.00; in that of `Cc1ccc2nc(C(C)n3cc(C(=O)NCc4c(C)cc5c(N)nccc5c4C)cn3)cn2c1` (single isomer, unassigned) [Example 12, (S*)-N-((1-amino-5,7-dimethylisoquinolin-6-yl)methyl)-1-(1-(6-methylimidazo[1,2-a]pyridin-2-yl)ethyl)-1H-pyrazole-4-carboxamide], greater than 9.00.
Regarding `Cc1cc2c(N)nccc2c(C)c1CNc1cc(NCc2ccc(Cc3ccc(Cl)cn3)cc2)ncn1` [Example 369, N^4-((1-amino-5,7-dimethylisoquinolin-6-yl)methyl)-N^6(4-((5-chloropyridin-2-yl)methyl)benzyl)pyrimidine-4,6-diamine], the pEC50 was 8.00 to 9.00.
The same measure, in the same setting: in the case of `Cc1cc2c(N)nccc2c(C)c1CNC(=O)c1cnn(Cc2ccc3c(-c4ccccn4)cccc3c2)c1` [Example 114, N-((1-amino-5,7-dimethylisoquinolin-6-yl)methyl)-1-((5-(pyridin-2-yl)naphthalen-2-yl)methyl)-1H-pyrazole-4-carboxamide] it was greater than 9.00; in that of `COc1ccc2cc(Cn3cc(C(=O)NCc4c(C)cc5c(N)nccc5c4C)cn3)cnc2c1` [Example 110, N-((1-amino-5,7-dimethylisoquinolin-6-yl)methyl)-1-((7-methoxyquinolin-3-yl)methyl)-1H-pyrazole-4-carboxamide], 8.00 to 9.00; in that of `Cc1cc2c(N)nccc2c(C)c1CNC(=O)c1cnn(Cc2nc3ccccc3n2C)c1` [Example 75, N-((1-amino-5,7-dimethylisoquinolin-6-yl)methyl)-1-((1-methyl-1H-benzo[d]imidazol-2-yl)methyl)-1H-pyrazole-4-carboxamide], 6.00 to 7.00.
The same measure, in the same setting: in the case of `Cc1cc2c(N)nccc2c(C)c1CNC(=O)c1ccnc(Cc2ccc3ncc(Cl)cc3c2)c1` [Example 197, N-((1-amino-5,7-dimethylisoquinolin-6-yl)methyl)-2-((3-chloroquinolin-6-yl)methyl)isonicotinamide] it was greater than 9.00; in that of `Cc1cc2c(N)nccc2c(C)c1CNC(=O)c1cnn(Cc2cn3c(C)c(C)ccc3n2)c1` [Example 136, N-((1-amino-5,7-dimethylisoquinolin-6-yl)methyl)-1-((5,6-dimethylimidazo[1,2-a]pyridin-2-yl)methyl)-1H-pyrazole-4-carboxamide], greater than 9.00.
As to `Cc1cc2c(N)nccc2c(C)c1CNc1cc(NCc2ccc(Cc3cscn3)cc2)ncn1` [Example 350, N^4-((1-amino-5,7-dimethylisoquinolin-6-yl)methyl)-N^6-(4-(thiazol-4-ylmethyl)benzyl)pyrimidine-4,6-diamine], the negative logarithm of the EC50 (pEC50) was greater than 9.00.
In the case of `COc1ccccc1Cn1cc(C(=O)NCc2c(C)cc3c(N)nccc3c2C)cn1` [Example 33, N-((1-amino-5,7-dimethylisoquinolin-6-yl)methyl)-1-(2-methoxybenzyl)-1H-pyrazole-4-carboxamide], the pEC50 is 6.00 to 7.00.
Take `Cc1cc2c(N)nccc2c(C)c1CNc1cc(OCc2ccc3nc(C)c(C)nc3c2)cnn1` [Example 418, 6-(((5-((2,3-dimethylquinoxalin-6-yl)methoxy)pyridazin-3-yl)amino)methyl)-5,7-dimethylisoquinolin-1-amine, formic acid salt]: the negative logarithm of the EC50 (pEC50) was greater than 9.00.
Regarding `Cc1cc2c(N)nccc2c(C)c1CNc1nccc2cn(Cc3cn4cc(C5CC5)cnc4n3)nc12` [Example 264, 6-(((2-((6-cyclopropylimidazo[1,2-a]pyrimidin-2-yl)methyl)-2H-pyrazolo[3,4-c]pyridin-7-yl)amino)methyl)-5,7-dimethylisoquinolin-1-amine], the negative-log EC50 (pEC50) is greater than 9.00.
The same measure, in the same setting: then `CCOC(=O)c1nc(NCc2c(C)cc3c(N)nccc3c2C)cc(OCc2cn3cc(C4CC4)cnc3n2)n1` [Example 489, ethyl 4-(((1-amino-5,7-dimethylisoquinolin-6-yl)methyl)amino)-6-((6-cyclopropylimidazo[1,2-a]pyrimidin-2-yl)methoxy)pyrimidine-2-carboxylate], with greater than 9.00; and `Cc1cc2c(N)nccc2c(C)c1CNc1cc(NC(C)c2ccc3ncc(Cl)cc3c2)ncn1` (stereo not drawn) [Example 310, N^4-((1-amino-5,7-dimethylisoquinolin-6-yl)methyl)-N^6-(1-(3-chloroquinolin-6-yl)ethyl)pyrimidine-4,6-diamine], with greater than 9.00; and `Cc1cc2c(N)nccc2c(C)c1CNc1cc(OCc2ccccc2)cnn1` [Example 443, 6-(((5-(benzyloxy)pyridazin-3-yl)amino)methyl)-5,7-dimethylisoquinolin-1-amine], with 6.00 to 7.00.
The same measure, in the same setting: in the case of `Cc1cc2c(N)nccc2c(C)c1CNc1cc(OCc2cn3cc(C4CC4)ccc3n2)cnc1C(=O)O` [Example 495, 3-(((1-amino-5,7-dimethylisoquinolin-6-yl)methyl)amino)-5-((6-cyclopropylimidazo[1,2-a]pyridin-2-yl)methoxy)picolinic acid] it was less than 6.00.
On to `Cc1cc2c(N)nccc2c(C)c1CNc1cc(NCc2ccc(CC(=O)N3CC4CC4C3)cc2)ncn1` (stereo not drawn) [Example 378, 2-(4-(((6-(((1-amino-5,7-dimethylisoquinolin-6-yl)methyl)amino)pyrimidin-4-yl)amino)methyl)phenyl)-1-(3-azabicyclo[3.1.0]hexan-3-yl)ethan-1-one], for which the pEC50 is greater than 9.00.
Still for that read-out and setting: in the case of `Cc1cc2c(N)nccc2c(C)c1CNc1nccnc1OCc1cn2cc(C3CC3)ccc2n1` [Example 287, 6-(((3-((6-cyclopropylimidazo[1,2-a]pyridin-2-yl)methoxy)pyrazin-2-yl)amino)methyl)-5,7-dimethylisoquinolin-1-amine] it was 7.00 to 8.00; in that of `Cc1ccc2nc(Cn3cc(C(=O)NCc4c(C)cc5c(NC(=O)OCC(C)C)nccc5c4C)cn3)cn2c1` [Example 5, isobutyl (5,7-dimethyl-6-((1-((6-methylimidazo[1,2-a]pyridin-2-yl)methyl)-1H-pyrazole-4-carboxamido)methyl)isoquinolin-1-yl)carbamate], 7.00 to 8.00.
Regarding `Cc1cc2c(N)nccc2c(C)c1CNc1cc(OCc2ccc(Cc3ccn(C)n3)cc2)ncn1` [Example 297, 5,7-dimethyl-6-(((6-((4-((1-methyl-1H-pyrazol-3-yl)methyl)benzyl)oxy)pyrimidin-4-yl)amino)methyl)isoquinolin-1-amine, formic acid salt], the pEC50 was 8.00 to 9.00.
`Cc1cc2c(N)nccc2c(C)c1CNC(=O)c1cnn(Cc2ccc(C(C)C(=O)N(C)C)cc2)c1` (stereo not drawn) [Example 119, N-((1-amino-5,7-dimethylisoquinolin-6-yl)methyl)-1-(4-(1-(dimethylamino)-1-oxopropan-2-yl)benzyl)-1H-pyrazole-4-carboxamide]: the pEC50 is greater than 9.00.
As for `Cc1cc2c(N)nccc2c(C)c1CNc1cc(OCc2cnc3ccc(F)cc3c2)cnn1` [Example 415, 6-(((5-((6-fluoroquinolin-3-yl)methoxy)pyridazin-3-yl)amino)methyl)-5,7-dimethylisoquinolin-1-amine], the pEC50 is greater than 9.00.
On to `COc1ccc2cc(Cn3cc(C(=O)NCc4c(C)cc5c(N)nccc5c4C)cn3)cnc2c1` [Example 111, N-((1-amino-5,7-dimethylisoquinolin-6-yl)methyl)-1-((7-methoxyquinolin-3-yl)methyl)-1H-pyrazole-4-carboxamide], for which the pEC50 was greater than 9.00.
On the same count and under the same terms, in the case of `Cc1cc2c(N)nccc2c(C)c1CNc1cc2nn(Cc3ccc(Cn4cccn4)cc3)cc2cn1` [Example I-459, 6-(((2-(4-((1H-pyrazol-1-yl)methyl)benzyl)-2H-pyrazolo[4,3-c]pyridin-6-yl)amino)methyl)-5,7-dimethylisoquinolin-1-amine] it was 7.00 to 8.00; in that of `Cc1cc2c(N)nccc2c(C)c1CNC(=O)c1cnn(Cc2ccc3ncccc3n2)c1` [Example 150, 1-((1,5-naphthyridin-2-yl)methyl)-N-((1-amino-5,7-dimethylisoquinolin-6-yl)methyl)-1H-pyrazole-4-carboxamide], 7.00 to 8.00.
For `Cc1cc2c(N)nccc2c(C)c1CNc1cc(CCc2ccc(Cn3cccn3)cc2)ncn1` [Example I-460, 6-((6-(4-((1H-pyrazol-1-yl)methyl)phenethyl)pyrimidin-4-ylamino)methyl)-5,7-dimethylisoquinolin-1-amine], the pEC50 was 7.00 to 8.00.
Still for that read-out and setting: in the case of `Cc1cc2c(N)nccc2c(C)c1CNC(=O)c1cnn(Cc2ccc(C#N)cc2)c1` [Example 92, N-((1-amino-5,7-dimethylisoquinolin-6-yl)methyl)-1-(4-cyanobenzyl)-1H-pyrazole-4-carboxamide] it was 7.00 to 8.00.

The assay is the same for the next values; noted with them: Primary Dose Response Assay: Average EC50, 500 pM activated kallikrein; 300 μM PFR-AMC; 30 min preincubation; 10 min room temperature; pH 7.5.
On to `Cc1cc2c(N)nccc2c(C)c1CNc1cc(NCc2ccc(CC(=O)N(C)C)cc2)ncn1` [Example 375, 2-(4-(((6-(((1-amino-5,7-dimethylisoquinolin-6-yl)methyl)amino)pyrimidin-4-yl)amino)methyl)phenyl)-N,N-dimethylacetamide], for which the pEC50 was greater than 9.00.
